In ChEMBL document CHEMBL5532757, “Design, synthesis, and biological evaluation of 1,2,4-oxadiazole-based derivatives as multitarget anti-Alzheimer agents” (RSC Med Chem, 2024):
Where a name gives a salt, the structure may show the parent alone. Calls of active or inactive are those of the source. The rule behind the calls is not given here.

What was measured:
[1] = biological target: T1, Amine oxidase [flavin-containing] B (Homo sapiens, UniProt P27338); test: Inhibition of human recombinant MAO-B expressed in baculovirus infected BTI insect cells measured after 30 to 90 sec by absorbance based assay; conditions: for inhibition (INH): human, bti, time 30-90 sec
T1 sequence (P27338 whole entry): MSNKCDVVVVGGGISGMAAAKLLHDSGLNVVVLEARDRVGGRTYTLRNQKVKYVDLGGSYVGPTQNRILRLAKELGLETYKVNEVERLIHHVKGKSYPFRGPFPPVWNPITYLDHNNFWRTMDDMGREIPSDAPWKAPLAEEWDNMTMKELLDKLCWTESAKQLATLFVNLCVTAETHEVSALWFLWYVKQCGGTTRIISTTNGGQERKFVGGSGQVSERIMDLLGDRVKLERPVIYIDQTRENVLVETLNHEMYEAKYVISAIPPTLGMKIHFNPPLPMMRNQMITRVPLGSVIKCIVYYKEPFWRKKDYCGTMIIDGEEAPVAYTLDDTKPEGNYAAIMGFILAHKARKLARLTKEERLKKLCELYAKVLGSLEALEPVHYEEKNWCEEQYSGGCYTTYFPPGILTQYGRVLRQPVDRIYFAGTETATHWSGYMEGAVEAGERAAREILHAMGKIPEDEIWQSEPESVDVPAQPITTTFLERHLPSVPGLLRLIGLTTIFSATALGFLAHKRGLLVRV

[2] = Antioxidant activity assessed as DPPH radical scavenging activity measured after 30 mins by spectrophotometric analysis; type: functional
Cholinesterase [3] = biological target: T2, Cholinesterase (Homo sapiens, UniProt P06276); test: Inhibition of BChE (unknown origin) using butyrylthiocholine iodide as substrate incubated for 15 mins by DTNB reagent based ELISA
Acetylcholinesterase [4] = biological target: T3, Acetylcholinesterase (Homo sapiens, UniProt P22303); test: Inhibition of AChE (unknown origin) using acetylthiocholine iodide as substrate incubated for 15 mins by DTNB reagent based ELISA
[5] = biological target: T4, Amine oxidase [flavin-containing] A (Homo sapiens, UniProt P21397); test: Inhibition of MAO-A (unknown origin) measured after 30 to 90 sec by absorbance based assay; conditions: for inhibition (INH): human, time 30-90 sec
T4 sequence (P21397 whole entry): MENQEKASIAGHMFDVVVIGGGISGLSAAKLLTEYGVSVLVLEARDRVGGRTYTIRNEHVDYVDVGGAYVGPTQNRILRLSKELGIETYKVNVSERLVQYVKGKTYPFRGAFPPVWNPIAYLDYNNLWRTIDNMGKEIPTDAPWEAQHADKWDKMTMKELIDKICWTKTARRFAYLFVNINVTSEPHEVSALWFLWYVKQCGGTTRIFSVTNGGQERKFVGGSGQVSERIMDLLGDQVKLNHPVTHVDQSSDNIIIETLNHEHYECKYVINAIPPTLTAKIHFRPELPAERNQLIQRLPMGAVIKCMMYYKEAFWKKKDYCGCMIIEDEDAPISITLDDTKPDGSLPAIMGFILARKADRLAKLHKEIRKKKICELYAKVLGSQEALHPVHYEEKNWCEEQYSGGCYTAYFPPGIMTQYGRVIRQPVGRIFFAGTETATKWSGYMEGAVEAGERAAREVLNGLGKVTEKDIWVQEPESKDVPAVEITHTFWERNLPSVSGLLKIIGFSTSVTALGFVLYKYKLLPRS

[6] = Selectivity index, ratio of IC50 for inhibition of BChE (unknown origin) using butyrylthiocholine iodide as substrate to IC50 for inhibition of AChE (unknown origin) using acetylthiocholine iodide as substrate
Acetylcholinesterase [7] = biological target: T3, Acetylcholinesterase; test: Potency index, ratio of donepezil IC50 to test compound IC50 for inhibition of AChE (unknown origin) using acetylthiocholine iodide as substrate incubated for 15 mins by DTNB reagent based ELISA
Cholinesterase [8] = biological target: T2, Cholinesterase; test: Inhibition of human BChE using butyrylthiocholine iodide as substrate preincubated for 5 mins followed by substrate addition and measured after 2 mins by absorbance based microplate reader
Acetylcholinesterase [9] = biological target: T3, Acetylcholinesterase; test: Inhibition of human recombinant AChE using acetylthiocholine iodide as substrate preincubated for 5 mins followed by substrate addition and measured after 2 mins by absorbance based microplate reader

T2 sequence (P06276 whole entry): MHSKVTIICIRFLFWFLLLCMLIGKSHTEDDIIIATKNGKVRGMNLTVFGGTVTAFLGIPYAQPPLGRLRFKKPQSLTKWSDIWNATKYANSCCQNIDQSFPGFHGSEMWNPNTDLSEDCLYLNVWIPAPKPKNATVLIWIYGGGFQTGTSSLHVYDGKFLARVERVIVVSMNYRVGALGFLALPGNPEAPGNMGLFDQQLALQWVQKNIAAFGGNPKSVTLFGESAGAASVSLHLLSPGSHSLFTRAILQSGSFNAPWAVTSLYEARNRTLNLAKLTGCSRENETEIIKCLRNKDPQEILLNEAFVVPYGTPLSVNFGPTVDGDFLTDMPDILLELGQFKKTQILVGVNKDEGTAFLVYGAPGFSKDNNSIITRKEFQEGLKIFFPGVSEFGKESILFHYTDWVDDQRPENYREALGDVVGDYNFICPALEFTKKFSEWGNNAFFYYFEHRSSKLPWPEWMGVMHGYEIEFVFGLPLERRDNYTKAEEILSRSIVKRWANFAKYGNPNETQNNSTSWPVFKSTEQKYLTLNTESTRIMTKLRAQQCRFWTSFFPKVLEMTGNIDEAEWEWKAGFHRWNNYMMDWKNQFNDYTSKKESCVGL
T3 sequence (P22303 whole entry): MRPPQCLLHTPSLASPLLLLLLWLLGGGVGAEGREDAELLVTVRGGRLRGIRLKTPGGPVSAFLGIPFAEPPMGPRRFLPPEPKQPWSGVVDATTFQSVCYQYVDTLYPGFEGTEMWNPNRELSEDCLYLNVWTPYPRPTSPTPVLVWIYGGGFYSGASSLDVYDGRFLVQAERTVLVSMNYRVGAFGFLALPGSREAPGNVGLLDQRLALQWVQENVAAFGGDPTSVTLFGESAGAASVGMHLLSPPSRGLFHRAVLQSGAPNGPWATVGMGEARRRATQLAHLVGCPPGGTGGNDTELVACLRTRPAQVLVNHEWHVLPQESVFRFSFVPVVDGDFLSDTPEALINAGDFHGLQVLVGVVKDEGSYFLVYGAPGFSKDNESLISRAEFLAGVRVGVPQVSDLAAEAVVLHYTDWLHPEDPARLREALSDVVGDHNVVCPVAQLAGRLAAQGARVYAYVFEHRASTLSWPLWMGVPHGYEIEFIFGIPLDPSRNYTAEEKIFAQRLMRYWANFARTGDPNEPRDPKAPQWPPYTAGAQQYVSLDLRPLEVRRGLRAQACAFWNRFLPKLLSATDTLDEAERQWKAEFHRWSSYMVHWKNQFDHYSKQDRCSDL

| SMILES | inhibition (INH) [1] | Activity [2] | inhibition (Cholinesterase [3]) | inhibition (Acetylcholinesterase [4]) | inhibition (INH) [5] | Ratio IC50 [6] | IC50 (Cholinesterase [3]) [µM] | IC50 (Acetylcholinesterase [4]) [µM] | Ratio IC50 (Acetylcholinesterase [7]) | IC50 [2] [µM] | IC50 [1] [µM] | IC50 [5] [µM] | IC50 (Cholinesterase [8]) [µM] | IC50 (Acetylcholinesterase [9]) [µM] |
| --- | --- | --- | --- | --- | --- | --- | --- | --- | --- | --- | --- | --- | --- | --- |
| CC(=NNC(=O)COc1ccccc1-c1nc(Cc2ccccc2)no1)c1nnn(-c2ccc(S(N)(=O)=O)cc2)c1C | Not Active | inactive | inactive | inactive | Not Active |  |  |  |  |  |  |  |  |  |
| CC(CCCCn1c(=O)c2c(ncn2C)n(C)c1=O)=NNC(=O)COc1ccccc1-c1nc(-c2ccccc2)no1 | Not Active | inactive |  |  | Not Active | 159 | 15 | 0.094 | 1.01 |  |  |  |  |  |
| O=C1O[C@H]([C@@H](O)CO)C(O)=C1O [ASCORBIC ACID] |  |  |  |  |  |  |  |  |  | 74.5 |  |  |  |  |
| Nc1ccc(-c2nc(-c3ccccc3N)no2)cc1 | Not Active | inactive |  |  | Not Active | 427 | 85.6 | 0.201 |  |  |  |  |  |  |
| CCCNC(C)C(=O)Nc1c(C)csc1-c1nc(Cc2ccccc2)no1 (centres undefined) |  |  |  |  |  | 856 | 41.4 | 0.048 | 1.01 | 1350 | 74.7 | 197 |  |  |
| Cc1cc(NS(=O)(=O)c2ccc(-n3cc(COc4ccccc4-c4nc(Cc5ccccc5)no4)nn3)cc2)no1 | Not Active | inactive | inactive |  |  |  |  | 0.103 | 1.01 |  |  | 533 |  |  |
| CCCNC(C)C(=O)Nc1c(C)csc1-c1nc(-c2ccccc2N)no1 (centres undefined) |  |  |  |  |  | 449 | 54.5 | 0.121 | 1.01 | 959 | 289 | 248 |  |  |
| OC(CCN1CCCCC1)(c1ccccc1)C1CC2C=CC1C2 (centres undefined) [BIPERIDEN HYDROCHLORIDE] |  |  |  |  |  |  |  |  |  |  | 266 |  |  |  |
| Cc1cc(NS(=O)(=O)c2ccc(NC(=O)COc3ccccc3-c3nc(-c4ccccc4)no3)cc2)no1 | Not Active | inactive |  |  | Not Active | 283 | 26.7 | 0.094 | 1.01 |  |  |  |  |  |
| Cc1cc(=O)oc2cc(OCc3ccc(-c4noc([C@@H]5CCCN5)n4)cc3)ccc12 |  |  |  |  |  |  |  |  |  |  |  |  | 8.17 | 77.6 |
| CCCNC(C)C(=O)Nc1c(C)csc1-c1nc(-c2ccccc2)no1 (centres undefined) |  |  |  |  |  | 325 | 33.2 | 0.102 | 1.01 | 1150 | 225 | 380 |  |  |
| CCCCOc1cc(-c2nc(C)no2)ccc1N | Not Active | inactive |  |  | Not Active | 3010 | 47.6 | 0.016 | 1.01 |  |  |  |  |  |
| Cc1cc(NS(=O)(=O)c2ccc(-n3cc(COc4ccccc4-c4nc(-c5ccc(C(F)(F)F)cc5)no4)nn3)cc2)no1 | Not Active | inactive | inactive | inactive |  |  |  |  |  |  |  | 273 |  |  |
| CCCNC(C)C(=O)Nc1c(C)csc1-c1nc(C)no1 (centres undefined) | Not Active | inactive |  |  |  | 622 | 125 | 0.201 |  |  |  | 1260 |  |  |
| CCCCOc1cc(-c2nc(-c3ccccc3)no2)ccc1N | Not Active |  |  |  | Not Active | 60.3 | 11.5 | 0.191 |  | 59.2 |  |  |  |  |
| Cc1noc(-c2ccc(N)cc2)n1 | Not Active |  |  |  | Not Active | 1320 | 138 | 0.104 | 1.01 | 105 |  |  |  |  |
| CC(CCCCn1c(=O)c2c(ncn2C)n(C)c1=O)=NNC(=O)COc1ccccc1-c1nc(Cc2ccccc2)no1 | Not Active | inactive | inactive | inactive |  |  |  |  |  |  |  | 957 |  |  |
| Cc1cc(NS(=O)(=O)c2ccc(-n3cc(COc4ccccc4-c4nc(-c5ccccc5)no4)nn3)cc2)no1 | Not Active |  |  |  | Not Active | 250 | 26.1 | 0.104 | 1.01 | 56.7 |  |  |  |  |
